Data on 2 compounds can be found in patent US7101848B2, “Bicyclic oligopeptides” (Boehringer Ingelheim Pharma GmbH & Co. KG, priority 2002, dated 2006).

A short description of one series: Solubility in buffer. Type of series: physicochemical. From the text:
and the following solubilities:

Another series in a line: Stability in rat plasma. Type of series: in vitro ADME. The conditions noted are these: substrate 1 μM, 37° C., up to 45 min. On the procedure: (§1) Incubations with preparations of microsomes and cytosol and with plasma under conditions as described below are suitable to investigate the metabolic stability of test compounds (e.g. oxidative metabolism reactions and hydrolysis by esterases). The metabolic stability of the test compounds of examples 1 and 2 is investigated in liver microsomes and cytosol of humans, dogs and rats and in plasma of humans and rats.
(§2) Incubations of test substrates (final concentration: 1 μM) are performed with human and rat plasma (heparin) containing 0.1 M Tris buffer pH 7.4. The reaction is initiated by addition of the test compound at 37° C. for up to 45 min and terminated by addition of acetonitrile. After vortex mixing and centrifugation the supernatants are analyzed.
(§3) The samples are analyzed by on-line solid phase extraction and reversed phase HPLC coupled to electro-spray ionization tandem mass spectrometry. The measurements are performed on a triple quad mass spectrometer Quattro II (Micromass, Manchester, UK). The instrument operates at nominal mass resolution in SIR-mode. The analytes are quantified by detection of their quasimolecular ions [M+2H]^2+ m/z 1019 (Example 1) and m/z 1026 (Example 2).

Series [1] can be described thus: Metabolic stability with dog liver microsomes. The format is in vitro ADME. The note with it: Dog Micros; substrate 1 μM, 37° C., up to 45 min. On the procedure: as §1
(§4) Incubations of test compounds (final concentration: 1 μM) are performed with liver microsomes and cytosol (0.5 mg protein/ml) in Tris buffer (Tris-(hydroxymethyl)-aminomethane) pH 7.4 (0.1 M) containing magnesium chloride (5 mM) at 37° C. for up to 45 min in a total volume of 100 μl. The reaction is initiated by addition of β-nicotinamide adenine dinucleotide phosphate, reduced form (NADPH, 1 mM) and terminated by addition of acetonitrile. After vortex mixing and centrifugation the supernatants are analyzed.
as §3
(Liver microsomes are a subcellular fraction often used to study metabolism.)

Series [2] in a line: Stability in human plasma. Type of series: in vitro ADME. The conditions noted are these: plasma (heparin), pH 7.4, substrate 1 μM, 37° C., up to 45 min, read-out: Half-lives (t½). As to the method: as §1, §2, §3
The nature of series [3]: Metabolic stability with human liver microsomes. The format is in vitro ADME. The note with it: Human Micros; substrate 1 μM, 37° C., up to 45 min. As to the method: as §1, §4, §3
A short description of series [4]: Metabolic stability with human liver cytosol. The note with it: 37° C., up to 45 min. The format is in vitro ADME. On the procedure:
as §1, §4, §3

The nature of series [5]: Metabolic stability with rat liver cytosol. The format is in vitro ADME. The note with it: 37° C., up to 45 min. On the procedure: as §1, §4, §3
A short description of series [6]: Metabolic stability with dog liver cytosol. Type of series: in vitro ADME. The conditions noted are these: 37° C., up to 45 min. On the procedure:
as §1, §4, §3

Series [7] can be described thus: Metabolic stability with rat liver microsomes. The format is in vitro ADME. The conditions noted are these: Rat Micros; substrate 1 μM, 37° C., up to 45 min. On the procedure: as §1, §4, §3
The mark [8] stands for this setting: liver cytosol, pH 7.4, substrate 1 μM, read-out: Half-lives (t½).

Structures are written as SMILES. In brackets after ≈: the same amount, converted by molar mass. Where a SMILES comes first, the peptide text is derived from it. Bridges are numbered along the chain shown (N, C = ends).

A word on the solubility: it is the dissolved amount per volume that the medium holds. A high value points to much dissolved substance. Consider `CC[C@H](C)[C@@H]1NC(=O)[C@@H]2CC(=O)NCC(=O)N[C@@H](CC(C)C)C(=O)N3CCC[C@H]3C(=O)N[C@@H](Cc3c[nH]c4ccccc34)C(=O)NCC(=O)N[C@@H](CSSC[C@@H](C(=O)O)NC(=O)[C@H](C)NC(=O)[C@H](Cc3c[nH]c4ccccc34)NC(=O)[C@@H]3CCCN3C(=O)[C@H]([C@@H](C)O)NC(=O)[C@H](CC(N)=O)NC(=O)[C@H](Cc3c[nH]c4ccccc34)NC(=O)CNC(=O)[C@@H]3CCCN3C1=O)C(=O)N1CCC[C@H]1C(=O)N[C@@H](CO)C(=O)N2` [Example 1] (GLPWGCPSDIPGWNTPWAC-OH; disulfide 6-19; lactam N-9), for which the solubility is 3 µg/mL (≈ 1.47 µM) in the series “Solubility in buffer” (Buffer pH 3.0), 120 µg/mL (≈ 58.9 µM) in the series “Solubility in buffer” (Buffer pH 7.4) and 92 µg/mL (≈ 45.2 µM) in the series “Solubility in buffer” (Buffer pH 10.0). Besides, the “Half-lives (t½)” value (in “Stability in rat plasma”; in series [1]; in series [3]; in series [4] (substrate 1 μM); in series [5] (substrate 1 μM); in series [6] (substrate 1 μM)) was “stable” in each case. Also, in series [7], the “Half-lives (t½)” value was “stable”. In addition, in [2], the half-life at 1 μM amounted to 3.03 h.
Take `CC[C@H](C)[C@@H]1NC(=O)[C@@H]2CC(=O)NCC(=O)N[C@@H](CC(C)C)C(=O)N3CCC[C@H]3C(=O)N[C@@H](Cc3c[nH]c4ccccc34)C(=O)NCC(=O)N[C@@H](CSSC[C@@H](C(=O)OC)NC(=O)[C@H](C)NC(=O)[C@H](Cc3c[nH]c4ccccc34)NC(=O)[C@@H]3CCCN3C(=O)[C@H]([C@@H](C)O)NC(=O)[C@H](CC(N)=O)NC(=O)[C@H](Cc3c[nH]c4ccccc34)NC(=O)CNC(=O)[C@@H]3CCCN3C1=O)C(=O)N1CCC[C@H]1C(=O)N[C@@H](CO)C(=O)N2` [Example 2] (GLPWGCPSDIPGWNTPWAC-OMe; disulfide 6-19; lactam N-9): the results for the solubility in the series “Solubility in buffer” (Buffer pH 3.0), in “Solubility in buffer” (Buffer pH 7.4) and in the series “Solubility in buffer” (Buffer pH 10.0) were 3 µg/mL (≈ 1.46 µM), 2 µg/mL (≈ 0.975 µM) and 4 µg/mL (≈ 1.95 µM), respectively. Besides, the “Half-lives (t½)” value (in “Stability in rat plasma”; in series [1]; in series [3]; in series [7]) was “stable” throughout. The half-life at 1 μM in series [2] came to 3 h; in series [4] (setting [8]), 2.03 h; in series [5] (setting [8]), 1.22 h; in series [6] (setting [8]), 2.33 h.
